Data taken from patent US7304075B2, “Stabilized liquid preparation” (Daiichi Pharmaceutical Co., Ltd., priority 2001, dated 2007).

Key:
Type in all cases: physicochemical
[1] = Light stability of aqueous sitafloxacin solution (white fluorescent tube irradiation); settings: sodium chloride-containing aqueous solution adjusted to pH 4.0, versus aqueous solutions without sodium chloride
[2] = Water solubility of free sitafloxacin; settings: around a neutral pH
[3] = Light stability of aqueous sitafloxacin solution (white fluorescent tube irradiation); settings: 1 mg/ml aqueous solution; for Transmission (%): T % at 430 nm
Protocol: To 160 ml of WFI were added 213.2 mg of sitafloxacin (active ingredient: 200 mg) and a varied amount of sodium chloride (0 mg for control, 20 mg, 100 mg, 200 mg, 1 g, 2 g, 4 g, 6 g or 10 g) or, for comparison, 10 g of D-sorbitol. Further, 5 ml of 0.1 mol/l aqueous hydrochloric acid was slowly added, followed by stirring for 30 mintues to dissolve sitafloxacin and sodium chloride. The nine kinds of solution each was adjusted to pH 4.0 by addition of 0.1 mol/l aqueous sodium hydroxide, and WFI was added to make 200 ml. Ten milliliter portions of the resulting aqueous solution were put into colorless ampules.
• (1) pH: Measured with a pH meter (F-16, supplied by Horiba, Ltd.). • (2) Osmotic pressure: Measured with an osmometer (3C2, supplied by Advanced Instrument, Inc.). • (3) (Light) Transmission: A transmission at 430 nm was measured with a Beckman DU-640 spectrophotometer. • (4) Retention: The content of sitafloxacin of the irradiated samples was determined as follows to calculate retention (%).
A test solution was prepared by accurately measuring 2 ml of a sample, adding an accurately measured equal amount of an internal standard solution, adding a mobile phase to make 20 ml, and mixing a 5 ml aliquot of the resulting solution with the mobile phase to make 20 ml.
A standard sitafloxacin solution was prepared by dissolving sitafloxacin for quantitative analysis (whose water content had been measured previously) precisely weighing about 0.1 g in the mobile phase to make a solution accurately measuring 100 ml, adding to an accurate 5 ml aliquot of the solution an accurately measured equal amount of the internal standard solution, adding the mobile phase to make 100 ml, and after thoroughly stirring, filtering the solution through a membrane filter. The test solution and the standard solution each measuring 10 μl were subjected to liquid chromatography under the following conditions. Ratios of the peak areas of sitafloxacin of the test solution or the standard solution to the peak area of the internal standard, QT and QS, were obtained, and the sitafloxacin content was determined according to the following equation. Sitafloxacin (C19H18ClF2N3O3) content (% to nominal amount)=amount (mg) of sitafloxacin for quantitative analysis (on dry basis)×(QT/QS)×(¼)×( 1/25)×100 wherein;
A standard solution was prepared by weighing 0.100 g of sitafloxacin for quantitative analysis (whose water content had been measured previously), adding a mobile phase to accurately make 100 ml, and adding the mobile phase to an accurately measured aliquot (1 ml) of the solution to make 100 ml.
A 10 μl aliquot of a sample and the standard solution was subjected to liquid chromatography under the following conditions, and the peak areas of the respective solutions were calculated by automatic integration to obtain the total content of sitafloxacin related substances.
Each of the 1 mg/ml aqueous solutions of sitafloxacin was irradiated with light of a white fluorescent tube (2500 lux×5 days: 300,000 lux·hr), and the same measurements as described above were repeated.

[4] = Initial, 5% D-sorbitol in place of sodium chloride
[5] = Irradiated (300,000 lux·hr), 5% D-sorbitol in place of sodium chloride
[6] = Irradiated (300,000 lux·hr), NaCl 0%
[7] = Irradiated (300,000 lux·hr), NaCl 0.01%
[8] = Irradiated (300,000 lux·hr), NaCl 0.05%
[9] = Irradiated (300,000 lux·hr), NaCl 0.10%
[10] = Irradiated (300,000 lux·hr), NaCl 0.50%
[11] = Irradiated (300,000 lux·hr), NaCl 1.0%
[12] = Irradiated (300,000 lux·hr), NaCl 2.0%
[13] = Irradiated (300,000 lux·hr), NaCl 3.0%
[14] = Irradiated (300,000 lux·hr), NaCl 5.0%

N[C@@H]1CN(c2c(F)cc3c(=O)c(C(=O)O)cn([C@@H]4C[C@@H]4F)c3c2Cl)CC12CC2 [sitafloxacin, (−)-7-[(7S)-7-amino-5-azaspiro[2.4]heptan-5-yl]-8-chloro-6-fluoro-1-[(1R,2S)-2-fluoro-1-cyclopropyl]-1,4-dihydro-4-oxo-3-quinolinecarboxylic acid]
formation of related substances due to irradiation or the reduction in pH [1]: more suppressed
water solubility [2]: poor
Total Related substances (%) [3, 4]: 0.30%
pH [3, 4]: 4.3
Transmission (%) [3, 4]: 77.2%
Total Related substances (%) ([3]; Initial, NaCl 0%): 0.31%
pH ([3]; Initial, NaCl 0%): 4.2
Transmission (%) ([3]; Initial, NaCl 0%): 77.6%
Total Related substances (%) ([3]; Initial, NaCl 0.01%): 0.30%
pH ([3]; Initial, NaCl 0.01%): 4.4
Transmission (%) ([3]; Initial, NaCl 0.01%): 77.1%
Total Related substances (%) ([3]; Initial, NaCl 0.05%): 0.29%
pH ([3]; Initial, NaCl 0.05%): 4.3
Transmission (%) ([3]; Initial, NaCl 0.05%): 76.8%
Total Related substances (%) ([3]; Initial, NaCl 0.10%): 0.26%
pH ([3]; Initial, NaCl 0.10%): 4.3
Transmission (%) ([3]; Initial, NaCl 0.10%): 76.7%
Total Related substances (%) ([3]; Initial, NaCl 0.50%): 0.28%
pH ([3]; Initial, NaCl 0.50%): 4.2
Transmission (%) ([3]; Initial, NaCl 0.50%): 75.6%
Total Related substances (%) ([3]; Initial, NaCl 1.0%): 0.30%
pH ([3]; Initial, NaCl 1.0%): 4.3
Transmission (%) ([3]; Initial, NaCl 1.0%): 74.7%
Total Related substances (%) ([3]; Initial, NaCl 2.0%): 0.31%
pH ([3]; Initial, NaCl 2.0%): 4.3
Transmission (%) ([3]; Initial, NaCl 2.0%): 73.1%
Total Related substances (%) ([3]; Initial, NaCl 3.0%): 0.30%
pH ([3]; Initial, NaCl 3.0%): 4.3
Transmission (%) ([3]; Initial, NaCl 3.0%): 72.8%
Total Related substances (%) ([3]; Initial, NaCl 5.0%): 0.30%
pH ([3]; Initial, NaCl 5.0%): 4.3
Transmission (%) ([3]; Initial, NaCl 5.0%): 70.7%
Retention (per Initial %) [3, 5]: 86.6%
Total Related substances (%) [3, 5]: 5.90%
pH [3, 5]: 3.5
Transmission (%) [3, 5]: 56.8%
Retention (per Initial %) [3, 6]: 84.2%
Total Related substances (%) [3, 6]: 5.90%
pH [3, 6]: 3.4
Transmission (%) [3, 6]: 47.1%
Retention (per Initial %) [3, 7]: 87.9%
Total Related substances (%) [3, 7]: 5.21%
pH [3, 7]: 3.7
Transmission (%) [3, 7]: 52.8%
Retention (per Initial %) [3, 8]: 91.7%
Total Related substances (%) [3, 8]: 3.84%
pH [3, 8]: 3.8
Transmission (%) [3, 8]: 61.0%
Retention (per Initial %) [3, 9]: 93.5%
Total Related substances (%) [3, 9]: 3.02%
pH [3, 9]: 3.8
Transmission (%) [3, 9]: 64.4%
Retention (per Initial %) [3, 10]: 94.2%
Total Related substances (%) [3, 10]: 2.48%
pH [3, 10]: 3.9
Transmission (%) [3, 10]: 63.6%
Retention (per Initial %) [3, 11]: 94.7%
Total Related substances (%) [3, 11]: 2.02%
pH [3, 11]: 3.9
Transmission (%) [3, 11]: 62.6%
Retention (per Initial %) [3, 12]: 94.0%
Total Related substances (%) [3, 12]: 2.30%
pH [3, 12]: 3.8
Transmission (%) [3, 12]: 60.7%
Retention (per Initial %) [3, 13]: 95.5%
Total Related substances (%) [3, 13]: 2.01%
pH [3, 13]: 3.9
Transmission (%) [3, 13]: 61.0%
Retention (per Initial %) [3, 14]: 94.8%
Total Related substances (%) [3, 14]: 2.28%
pH [3, 14]: 3.9
Transmission (%) [3, 14]: 57.6%
